Tests used:
LH-release = LH-release in rats after subcutaneous injection (procedure of Arimura et al.); type: in vivo; conditions: 50 ng subcutaneously
LH-RH activity [1] = test: LH-RH activity compared with the natural hormone
LH-RH activity [2] = conditions: literature reports; cited from earlier work

CC(C)C[C@H](NC(=O)CNC(=O)[C@H](Cc1ccc(O)cc1)NC(=O)[C@H](CO)NC(=O)[C@H](Cc1c[nH]c2ccccc12)NC(=O)[C@H](Cc1c[nH]cn1)NC(=O)[C@@H]1CCC(=O)N1)C(=O)N[C@@H](CCCNC(=N)N)C(=O)N1CCC[C@H]1C(=O)NCC(N)=O [LH-RH, (pyro)-Glu-His-Trp-Ser-Tyr-Gly-Leu-Arg-Pro-Gly-NH2]
duration of effect of the injection (LH release) (LH-release): no effects of the injection are observed after one hour | time at which peak activity (LH release) is reached after injection (LH-release): ~15 min

CC(C)C[C@H](NC(=O)CNC(=O)[C@H](Cc1ccc(O)cc1)NC(=O)[C@@H](CO)NC(=O)[C@H](Cc1c[nH]c2ccccc12)NC(=O)[C@H](Cc1c[nH]cn1)NC(=O)[C@@H]1CCC(=O)N1)C(=O)N[C@@H](CCCNC(=N)N)C(=O)N1CCC[C@H]1C(=O)NCC(N)=O [[D-Ser^4]-LH-RH]
LH-RH activity relative to the natural hormone (LH-RH activity [1]): less than 5%

[D-Ala^6 ]-LH-RH
activity compared with LH-RH (LH-RH activity [2]): more active than LH-RH
